Measurements taken from the NIST ThermoML archive (doi:10.1021/je500804j).
± gives the expanded uncertainty stated by the source.

Test: mn = molality of the nth substance listed, in mol/kg
Conditions: 101 kPa, Liquid, Alternating current cell with electrodes

CCCCCCCC[N+](C)(C)CCCCCCCCCCCC[N+](C)(C)CCCCCCCC.[Br-].[Br-] + O
Conditions	electrical conductivity [S/m]
288.15 K, m1 = 0.00524	0.0948 ± 0.00046
288.15 K, m1 = 0.00825	0.1292 ± 0.00057
288.15 K, m1 = 0.01026	0.1522 ± 0.00065
288.15 K, m1 = 0.01325	0.1863 ± 0.00078
288.15 K, m1 = 0.01696	0.2286 ± 0.00094
288.15 K, m1 = 0.01986	0.2617 ± 0.0011
288.15 K, m1 = 0.02257	0.2928 ± 0.0012
288.15 K, m1 = 0.02469	0.3169 ± 0.0013
288.15 K, m1 = 0.0276	0.3349 ± 0.0014
288.15 K, m1 = 0.03026	0.3455 ± 0.0014
288.15 K, m1 = 0.03258	0.3547 ± 0.0014
288.15 K, m1 = 0.03485	0.3637 ± 0.0015
288.15 K, m1 = 0.03697	0.3722 ± 0.0015
288.15 K, m1 = 0.03965	0.3828 ± 0.0015
288.15 K, m1 = 0.0414	0.3897 ± 0.0016
288.15 K, m1 = 0.04287	0.3956 ± 0.0016
288.15 K, m1 = 0.04499	0.404 ± 0.0016
288.15 K, m1 = 0.04668	0.4107 ± 0.0016
288.15 K, m1 = 0.04802	0.416 ± 0.0017
288.15 K, m1 = 0.04996	0.4237 ± 0.0017
288.15 K, m1 = 0.05094	0.4276 ± 0.0017
288.15 K, m1 = 0.05281	0.435 ± 0.0017
288.15 K, m1 = 0.0543	0.441 ± 0.0018
288.15 K, m1 = 0.0552	0.4446 ± 0.0018
288.15 K, m1 = 0.05651	0.4497 ± 0.0018
288.15 K, m1 = 0.05808	0.456 ± 0.0018
288.15 K, m1 = 0.05949	0.4616 ± 0.0019
288.15 K, m1 = 0.06045	0.4654 ± 0.0019
288.15 K, m1 = 0.06136	0.469 ± 0.0019
288.15 K, m1 = 0.06193	0.4713 ± 0.0019
293.15 K, m1 = 0.00394	0.05156 ± 0.00033
293.15 K, m1 = 0.00765	0.1034 ± 0.0005
293.15 K, m1 = 0.01114	0.1525 ± 0.00066
293.15 K, m1 = 0.01444	0.1943 ± 0.00081
293.15 K, m1 = 0.01756	0.229 ± 0.00094
293.15 K, m1 = 0.02051	0.2582 ± 0.001
293.15 K, m1 = 0.02331	0.2806 ± 0.0011
293.15 K, m1 = 0.02597	0.3012 ± 0.0012
293.15 K, m1 = 0.0285	0.316 ± 0.0013
293.15 K, m1 = 0.03091	0.3286 ± 0.0013
293.15 K, m1 = 0.0332	0.3423 ± 0.0014
293.15 K, m1 = 0.03539	0.3542 ± 0.0014
293.15 K, m1 = 0.03749	0.3651 ± 0.0015
293.15 K, m1 = 0.03949	0.3739 ± 0.0015
293.15 K, m1 = 0.0414	0.3836 ± 0.0015
293.15 K, m1 = 0.04323	0.3916 ± 0.0016
293.15 K, m1 = 0.04499	0.4007 ± 0.0016
293.15 K, m1 = 0.04668	0.4081 ± 0.0016
293.15 K, m1 = 0.0483	0.4165 ± 0.0017
293.15 K, m1 = 0.04986	0.4238 ± 0.0017
293.15 K, m1 = 0.05136	0.4302 ± 0.0017
293.15 K, m1 = 0.05281	0.436 ± 0.0018
293.15 K, m1 = 0.0542	0.4419 ± 0.0018
293.15 K, m1 = 0.05554	0.4484 ± 0.0018
293.15 K, m1 = 0.05683	0.4533 ± 0.0018
293.15 K, m1 = 0.05808	0.4587 ± 0.0018
293.15 K, m1 = 0.05929	0.4642 ± 0.0019
293.15 K, m1 = 0.06045	0.4689 ± 0.0019
293.15 K, m1 = 0.06158	0.4733 ± 0.0019
293.15 K, m1 = 0.06267	0.4778 ± 0.0019
298.15 K, m1 = 0.00394	0.04358 ± 0.00038
298.15 K, m1 = 0.00765	0.1152 ± 0.00058
298.15 K, m1 = 0.01115	0.1707 ± 0.00075
298.15 K, m1 = 0.01445	0.2175 ± 0.00092
298.15 K, m1 = 0.01541	0.2303 ± 0.00096
298.15 K, m1 = 0.01634	0.2425 ± 0.001
298.15 K, m1 = 0.01727	0.2535 ± 0.001
298.15 K, m1 = 0.01818	0.2637 ± 0.0011
298.15 K, m1 = 0.01907	0.2737 ± 0.0011
298.15 K, m1 = 0.01995	0.2808 ± 0.0011
298.15 K, m1 = 0.02081	0.2903 ± 0.0012
298.15 K, m1 = 0.02167	0.2984 ± 0.0012
298.15 K, m1 = 0.0225	0.306 ± 0.0013
298.15 K, m1 = 0.02333	0.3152 ± 0.0013
298.15 K, m1 = 0.02414	0.3211 ± 0.0013
298.15 K, m1 = 0.02494	0.3283 ± 0.0013
298.15 K, m1 = 0.02573	0.3337 ± 0.0014
298.15 K, m1 = 0.02651	0.3387 ± 0.0014
298.15 K, m1 = 0.02727	0.3443 ± 0.0014
298.15 K, m1 = 0.02802	0.349 ± 0.0014
298.15 K, m1 = 0.02877	0.3546 ± 0.0014
298.15 K, m1 = 0.0295	0.36 ± 0.0014
298.15 K, m1 = 0.03022	0.3649 ± 0.0015
298.15 K, m1 = 0.0314	0.3728 ± 0.0015
298.15 K, m1 = 0.03255	0.382 ± 0.0015
298.15 K, m1 = 0.03367	0.3883 ± 0.0016
298.15 K, m1 = 0.03477	0.3965 ± 0.0016
298.15 K, m1 = 0.03689	0.4084 ± 0.0016
298.15 K, m1 = 0.03892	0.4221 ± 0.0017
298.15 K, m1 = 0.04086	0.4336 ± 0.0018
298.15 K, m1 = 0.04272	0.4435 ± 0.0018
298.15 K, m1 = 0.0445	0.4525 ± 0.0018
298.15 K, m1 = 0.04621	0.4635 ± 0.0019
298.15 K, m1 = 0.04785	0.4712 ± 0.0019
298.15 K, m1 = 0.04943	0.4799 ± 0.0019
298.15 K, m1 = 0.05094	0.489 ± 0.002
298.15 K, m1 = 0.0524	0.4951 ± 0.002
298.15 K, m1 = 0.05381	0.5029 ± 0.002
298.15 K, m1 = 0.05517	0.5103 ± 0.0021
298.15 K, m1 = 0.05648	0.5162 ± 0.0021
298.15 K, m1 = 0.05774	0.5226 ± 0.0021
303.15 K, m1 = 0.00388	0.06075 ± 0.00048
303.15 K, m1 = 0.00752	0.1306 ± 0.00064
303.15 K, m1 = 0.01257	0.2181 ± 0.00094
303.15 K, m1 = 0.01415	0.2351 ± 0.00098
303.15 K, m1 = 0.01508	0.2505 ± 0.0011
303.15 K, m1 = 0.01599	0.2653 ± 0.0011
303.15 K, m1 = 0.01688	0.2779 ± 0.0011
303.15 K, m1 = 0.01776	0.2879 ± 0.0012
303.15 K, m1 = 0.01863	0.2986 ± 0.0012
303.15 K, m1 = 0.01948	0.3128 ± 0.0013
303.15 K, m1 = 0.02031	0.321 ± 0.0013
303.15 K, m1 = 0.02194	0.3372 ± 0.0014
303.15 K, m1 = 0.02274	0.3504 ± 0.0014
303.15 K, m1 = 0.02352	0.3547 ± 0.0014
303.15 K, m1 = 0.02429	0.3646 ± 0.0015
303.15 K, m1 = 0.02505	0.3691 ± 0.0015
303.15 K, m1 = 0.02652	0.3816 ± 0.0015
303.15 K, m1 = 0.02725	0.3867 ± 0.0016
303.15 K, m1 = 0.02796	0.3925 ± 0.0016
303.15 K, m1 = 0.02866	0.398 ± 0.0016
303.15 K, m1 = 0.02935	0.4046 ± 0.0016
303.15 K, m1 = 0.03003	0.4126 ± 0.0017
303.15 K, m1 = 0.03114	0.4192 ± 0.0017
303.15 K, m1 = 0.03222	0.4277 ± 0.0017
303.15 K, m1 = 0.03327	0.4359 ± 0.0018
303.15 K, m1 = 0.0343	0.4466 ± 0.0018
303.15 K, m1 = 0.03531	0.4517 ± 0.0018
303.15 K, m1 = 0.03629	0.4591 ± 0.0019
303.15 K, m1 = 0.03725	0.4681 ± 0.0019
303.15 K, m1 = 0.03819	0.4739 ± 0.0019
303.15 K, m1 = 0.03911	0.4794 ± 0.0019
303.15 K, m1 = 0.04	0.4859 ± 0.002
303.15 K, m1 = 0.04174	0.4978 ± 0.002
303.15 K, m1 = 0.0434	0.5113 ± 0.0021
303.15 K, m1 = 0.04498	0.5211 ± 0.0021
303.15 K, m1 = 0.04651	0.5314 ± 0.0022
303.15 K, m1 = 0.04797	0.5413 ± 0.0022
303.15 K, m1 = 0.04938	0.5513 ± 0.0022
303.15 K, m1 = 0.05073	0.56 ± 0.0023
303.15 K, m1 = 0.05203	0.5681 ± 0.0023
303.15 K, m1 = 0.05328	0.5759 ± 0.0023
303.15 K, m1 = 0.05448	0.5835 ± 0.0024
308.15 K, m1 = 0.00358	0.06093 ± 0.00052
308.15 K, m1 = 0.00694	0.1384 ± 0.0007
308.15 K, m1 = 0.01011	0.2008 ± 0.0009
308.15 K, m1 = 0.01163	0.23 ± 0.00099
308.15 K, m1 = 0.01311	0.2551 ± 0.0011
308.15 K, m1 = 0.01539	0.2922 ± 0.0012
308.15 K, m1 = 0.01622	0.3053 ± 0.0013
308.15 K, m1 = 0.01704	0.3166 ± 0.0013
308.15 K, m1 = 0.01784	0.3262 ± 0.0013
308.15 K, m1 = 0.01863	0.3371 ± 0.0014
